# Data from publication PMC11714206, “Massively Parallel Screening of Toll/Interleukin‐1 Receptor (TIR)‐Derived Peptides Reveals Multiple Toll‐Like Receptors (TLRs)‐Targeting Immunomodulatory Peptides” (Advanced Science, 2024).
# Target: T1, MAL^TIR (Homo sapiens, UniProt P58753)
# T1 construct: MAL (residues 79–221); 6xHis; made in house; host or cells: E. coli BL21 (DE3)
# Assay: T‐Surf phage library (P8 and P3) selection against MAL^TIR, four rounds, NGS read counts
# Assay type: binding
# Conditions: for P8_MAL Rank (after) / P8_MAL Rank (before): P8 library; for Population: 4th round of selection against MAL TIR, share of NGS reads; for P3_MAL Rank (after) / P3_MAL Rank (before): P3 library
# How it was run: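 Four panning rounds on TIR domain adsorbed at 5 µg mL^−1; binding 1 h at 20–22 °C, elution with 100 mM HCl. Output: NGS read counts of round‐4 pools versus naïve library.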
# [1] = selection against MAL, rank by count after grouping
# [2] = selection against MAL, rank by count before grouping
# [3] = P3_MAL: rank by count after grouping
# [4] = P3_MAL: rank by count before grouping
# [5] = P8_MAL pool: P8 T-Surf phage library
# [6] = selection against MAL TIR, rank by count after grouping
# [7] = selection against MAL TIR, rank by count before grouping
# [8] = selection against MAL, rank after grouping
# [9] = selection against MAL, rank before grouping
# [10] = P3_MAL pool: P3 T-Surf phage library
# [11] = P8_MAL: rank by count after grouping
# [12] = P8_MAL: rank by count before grouping
# [13] = 4R selection against MAL, rank after grouping
# [14] = 4R selection against MAL, rank before grouping
# T1 sequence (P58753 79-221): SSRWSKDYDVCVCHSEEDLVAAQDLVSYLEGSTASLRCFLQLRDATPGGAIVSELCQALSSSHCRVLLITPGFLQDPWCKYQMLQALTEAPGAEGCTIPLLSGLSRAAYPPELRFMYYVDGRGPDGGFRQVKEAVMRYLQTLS
sequence,measurement,setting,value
TLLDHLCNELVQAGIH,P8_MAL Rank (after),[1],721
same,P8_MAL Rank (before),[2],2639
RSFRDGLWRLLELSKK,Rank (after),[3],160
same,Rank (before),[4],3232
ALLYTFLINLTHPTNF,Population,[5],0.0034%
RNFVAYLFQALADKGV,P8_MAL Rank (after),[6],273
same,P8_MAL Rank (before),[7],2198
AFLYTFLINLTRPTNF,Population,[5],0.0034%
NQWRNELTAAANLNGW,P3_MAL Rank (after),[8],508
same,P3_MAL Rank (before),[9],3405
VRQNFISHLYDALHRNRI,Rank (after),[3],140
same,Rank (before),[4],406
FAFTGHLHRYLVQRGV,Population,[10],0.00338%
RFMMKFRTELDRGNGG,P8_MAL Rank (after),[8],489
same,P8_MAL Rank (before),[9],2304
PFFWEQLRTVLGKPTK,P8_MAL Rank (after),[8],510
same,P8_MAL Rank (before),[9],2323
LGFFCNQAKALSDRGI,Rank (after),[3],435
same,Rank (before),[4],2116
NNLFNELVSKNIRTFT,P3_MAL Rank (after),[1],735
same,P3_MAL Rank (before),[2],3480
WFIIKFRTVLDRVNDV,Rank (after),[11],396
same,Rank (before),[12],1372
RHFAGLLYDRLTKTGV,Rank (after),[3],414
same,Rank (before),[4],2563
RNFVAYLFQGLANKVI,Rank (after),[11],427
same,Rank (before),[12],2195
AFLYTLLINLTHPTNF,Population,[5],0.00432%
WFYERRVSLILLLTIV,P8_MAL Rank (after),[1],684
same,P8_MAL Rank (before),[2],1253
RYIMPHPQVLSQKKQQ,P3_MAL Rank (after),[1],725
same,P3_MAL Rank (before),[2],2329
VFLYTFLINLTHPTNF,Population,[5],0.00309%
DHHLDLPLAKRLNRKFW,P3_MAL Rank (after),[8],492
same,P3_MAL Rank (before),[9],1922
EKIVEWVWGKVHRTFK,P8_MAL Rank (after),[6],207
same,P8_MAL Rank (before),[7],896
SSFREGLWRLRGLSKK,P3_MAL Rank (after),[6],232
same,P3_MAL Rank (before),[7],3160
YFLHFLLFSRPEPAYI,Rank (after),[11],114
same,Rank (before),[12],1463
VRHTFAGYLYDALHRNRI,Rank (after),[3],404
same,Rank (before),[4],1703
YFLHSCCLAVRKPSI,Rank (after),[11],158
same,Rank (before),[12],1511
FLNFRGLDVRNYFLA,Rank (after),[3],408
same,Rank (before),[4],1158
NQWRNALTAATNLSGG,Rank (after),[3],119
same,Rank (before),[4],3403
RNFVAQLKRALANKAI,P8_MAL Rank (after),[8],499
same,P8_MAL Rank (before),[9],2310
AFFWAICIMRWCRRAF,P8_MAL Rank (after),[1],708
same,P8_MAL Rank (before),[2],1656
TRFCDRRCLTVAGSSA,Rank (after),[3],409
same,Rank (before),[4],3235
KLRAWRDALRNIANIF,Rank (after),[3],428
same,Rank (before),[4],3626
YFLHFRLLSRPETEYI,P8_MAL Rank (after),[13],643
same,P8_MAL Rank (before),[14],1505
RLLKWKEALHHVLQK,P3_MAL Rank (after),[1],690
same,P3_MAL Rank (before),[2],2502
MSHLYQGLQHRGIFTF,Rank (after),[3],396
same,Rank (before),[4],2943
YLKWGYPWFWIVCVL,Rank (after),[11],143
same,Rank (before),[12],1546
LFFWARLKNVLGSAGS,P8_MAL Rank (after),[8],557
same,P8_MAL Rank (before),[9],2064
ELLLSVFMTLSAPRTV,P8_MAL Rank (after),[8],577
same,P8_MAL Rank (before),[9],2043
AFFWAQLKSVLGNLTK,Rank (after),[11],399
same,Rank (before),[12],1623
KWFLAKLIYALSRNPH,P3_MAL Rank (after),[1],758
same,P3_MAL Rank (before),[2],3484
YAFTGHLHRYLVQRGA,Population,[10],0.00338%
KMKYWKDALYDASNLS,P3_MAL Rank (after),[8],510
same,P3_MAL Rank (before),[9],3703
TFLGHLYIALVQTGIH,P8_MAL Rank (after),[6],261
same,P8_MAL Rank (before),[7],2558
HHKAAMAKRWRNMKN,Rank (after),[3],401
same,Rank (before),[4],2818
DIQSSRLKDDADLVGQ,P3_MAL Rank (after),[13],655
same,P3_MAL Rank (before),[14],1960
WFLLKFRTVLAHVNDV,P8_MAL Rank (after),[8],511
same,P8_MAL Rank (before),[9],1354
LCFCESLKQLLRSDGR,Rank (after),[11],110
same,Rank (before),[12],2161
PKLRTKVMNYLMRTKT,Rank (after),[3],155
same,Rank (before),[4],2759
AFFWEQLRTVLRKPTT,P8_MAL Rank (after),[13],631
same,P8_MAL Rank (before),[14],1693
ALLYTFLIHLTHPTNS,P8_MAL Rank (after),[13],594
same,P8_MAL Rank (before),[14],1929
TFLATLYNALAQAGIH,Rank (after),[11],449
same,Rank (before),[12],2620
AFLYTFLLNLTHPTHF,Rank (after),[11],162
same,Rank (before),[12],1829
DWFLSKLSQHLLKRAK,P3_MAL Rank (after),[1],682
same,P3_MAL Rank (before),[2],1882
RNLVAYLLQPRANKCI,P8_MAL Rank (after),[13],603
same,P8_MAL Rank (before),[14],2242
HFFWIQLKAFWAKPA,Rank (after),[11],184
same,Rank (before),[12],992
RNNLMDRLYQALDLLR,P8_MAL Rank (after),[8],545
same,P8_MAL Rank (before),[9],2298
SSFREGLWRWRELRKK,P3_MAL Rank (after),[8],504
same,P3_MAL Rank (before),[9],3170
TFLGPQYNALVQAGTH,P8_MAL Rank (after),[8],484
same,P8_MAL Rank (before),[9],2554
DTRYTFIAHLSHALNL,P8_MAL Rank (after),[13],651
same,P8_MAL Rank (before),[14],2040
KERPFGAQRAEKWRA,P3_MAL Rank (after),[1],736
same,P3_MAL Rank (before),[2],3610
WHLHLRLRMHDLLQQM,P3_MAL Rank (after),[8],537
same,P3_MAL Rank (before),[9],1311
AFFWAQLKNVLGSPTI,P8_MAL Rank (after),[1],718
same,P8_MAL Rank (before),[2],1642
WFYERLVILVLRDTKG,P8_MAL Rank (after),[6],250
same,P8_MAL Rank (before),[7],1179
NELVHVWSSKAHSPVG,P3_MAL Rank (after),[1],731
same,P3_MAL Rank (before),[2],3294
NQLRNALTASANLSGW,P3_MAL Rank (after),[13],613
same,P3_MAL Rank (before),[14],3325
RNNFIGHQYQALYRSR,P8_MAL Rank (after),[6],235
same,P8_MAL Rank (before),[7],2291
YAFTGHLHRYLVQRGVHGGD,P3_MAL Rank (after),[8],560
same,P3_MAL Rank (before),[9],1396
SEFLGAAEKRAGQSDD,Rank (after),[11],481
same,Rank (before),[12],2445
YAFTGHFHCCKLQRGV,P3_MAL Rank (after),[13],666
same,P3_MAL Rank (before),[14],1358
LLFWGSLKQLLRSDGR,Rank (after),[11],111
same,Rank (before),[12],2159
AFLYTFLINLTHPTNL,Population,[5],0.00371%
KERPFGAQRAEKWRTALT,Rank (after),[3],466
same,Rank (before),[4],3611
WFLTAFRVAMEQVADT,P8_MAL Rank (after),[13],662
same,P8_MAL Rank (before),[14],1359
WFYERLESLILRDTKV,Population,[5],0.00278%
AFLYTFLIKLTHPPNF,Rank (after),[11],101
same,Rank (before),[12],1862
YFWNALENALAVNNDV,Rank (after),[3],479
same,Rank (before),[4],1335
WHFPLPLRMQELLRKM,Rank (after),[3],436
same,Rank (before),[4],1289
ALLYPFLINLTHPTHF,P8_MAL Rank (after),[8],522
same,P8_MAL Rank (before),[9],1957
SPRKNLVSNLIEEFTR,P3_MAL Rank (after),[6],252
same,P3_MAL Rank (before),[7],3108
PNLRTKVLNYLFRTNT,P3_MAL Rank (after),[6],237
same,P3_MAL Rank (before),[7],2711
SSFREGLWRLLALSTN,P3_MAL Rank (after),[1],723
same,P3_MAL Rank (before),[2],3142
AFYGPLLSLILRDTKM,P8_MAL Rank (after),[13],641
same,P8_MAL Rank (before),[14],1790
DWFREQLRPALKERLP,Rank (after),[3],125
same,Rank (before),[4],787
